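96-well plates; 48 h exposure; 5 concentrations. Endpoints by linear interpolation between flanking doses. Not reached: highest tested concentration assigned. The concentration for 50% growth inhibition is given as GI50.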 Active and inactive are the calls of the source. No stated cut-off is given here; in the data, active = GI50 up to about 1.1 µM and inactive = higher.
What was measured:
Assay in all cases: NCI-60 cell line screen, 48 h
NCI-H23 = test system: NCI-H23
HCT-15 = test system: HCT-15
NCI-H226 = test system: NCI-H226
Malme-3M = test system: Malme-3M
UO-31 = test system: UO-31
NCI/ADR-RES = test system: NCI/ADR-RES
OVCAR-8 = test system: OVCAR-8
A498 = test system: A498
OVCAR-3 = test system: OVCAR-3
LOX IMVI = test system: LOX IMVI
IGROV-1 = test system: IGROV-1
HOP-62 = test system: HOP-62
NCI-H522 = test system: NCI-H522
EKVX = test system: EKVX
A549 = test system: A549
HCC 2998 = test system: HCC 2998
SF-539 = test system: SF-539
CCRF-CEM = test system: CCRF-CEM
SK-OV-3 = test system: SK-OV-3
KM12 = test system: KM12

SMILES	GI50 (NCI-H23)	GI50 (HCT-15) [µM]	GI50 (NCI-H226)	GI50 (Malme-3M)	GI50 (UO-31)	GI50 (NCI/ADR-RES)	GI50 (OVCAR-8)	GI50 (A498)	GI50 (OVCAR-3)	GI50 (LOX IMVI)	GI50 (IGROV-1)	GI50 (HOP-62)	GI50 (NCI-H522)	GI50 (EKVX)	GI50 (A549)	GI50 (HCC 2998)	GI50 (SF-539)	GI50 (CCRF-CEM)	GI50 (SK-OV-3)	GI50 (KM12)
O=c1cc(NCc2ccncc2)[nH]c(=O)[nH]1	> 100 µM (inactive)	> 100	> 100 µM (inactive)	> 100 µM (inactive)	> 100 µM (inactive)	> 100 µM (inactive)	> 100 µM (inactive)	> 100 µM (inactive)	> 100 µM (inactive)	> 100 µM (inactive)	> 100 µM (inactive)	> 100 µM (inactive)	> 100 µM (inactive)	> 100 µM (inactive)	> 100 µM (inactive)	> 100 µM (inactive)	> 100 µM (inactive)	> 100 µM (inactive)	> 100 µM (inactive)	> 100 µM (inactive)
N#Cc1c(-c2ccccc2)c2c([nH]c1=O)-c1cc([N+](=O)[O-])ccc1CCC2	25.2 µM (inactive)	20.9	27.1 µM (inactive)	51.8 µM (inactive)	41.4 µM (inactive)	22 µM (inactive)	34.3 µM (inactive)	19 µM (inactive)	21.2 µM (inactive)	25.5 µM (inactive)	29.9 µM (inactive)	22.7 µM (inactive)	27.5 µM (inactive)	26.7 µM (inactive)	30.3 µM (inactive)	20.7 µM (inactive)	27.7 µM (inactive)	37.6 µM (inactive)	36.3 µM (inactive)	32.9 µM (inactive)
COc1cc(OC)c(-c2cc(=O)c3c(OC)c(OC)c(OC)c(OC)c3o2)cc1OC	33 µM (inactive)	> 100	> 100 µM (inactive)	> 100 µM (inactive)	20.8 µM (inactive)	21.9 µM (inactive)	31.3 µM (inactive)	> 61.2 µM (inactive)	30.2 µM (inactive)	> 100 µM (inactive)	> 100 µM (inactive)	36.1 µM (inactive)	17.7 µM (inactive)	> 100 µM (inactive)	> 100 µM (inactive)	> 100 µM (inactive)	> 100 µM (inactive)	> 28.4 µM (inactive)	> 100 µM (inactive)	74.1 µM (inactive)
C[As](C)SCC(NC(=O)CCC(N)C(=O)O)C(=O)NCC(=O)O.c1ccncc1 (stereo not given)	0.284 µM (active)	0.0702	0.361 µM (active)	0.0389 µM (active)	0.182 µM (active)	0.141 µM (active)	0.231 µM (active)	0.437 µM (active)	0.0399 µM (active)	0.18 µM (active)	1.42 µM (inactive)	0.885 µM (active)	0.0824 µM (active)	0.182 µM (active)	0.984 µM (active)	0.188 µM (active)	0.105 µM (active)	0.0492 µM (active)	7.31 µM (inactive)	0.361 µM (active)
C[C@]1(CO)[C@H]2CC[C@@]34C=C[C@@](CO)(CC[C@H]3[C@]2(C)CC[C@H]1O)C4	40.4 µM (inactive)	36.5	> 100 µM (inactive)	20.5 µM (inactive)	35.4 µM (inactive)	27.3 µM (inactive)	31.1 µM (inactive)	> 100 µM (inactive)	> 100 µM (inactive)	48.4 µM (inactive)	25.4 µM (inactive)	62.2 µM (inactive)	64.4 µM (inactive)	29.4 µM (inactive)	> 100 µM (inactive)	38.3 µM (inactive)	96.2 µM (inactive)	> 100 µM (inactive)	38.6 µM (inactive)	38.1 µM (inactive)
CC(=O)N1C2=CCCC2(C)c2ccccc21 (stereo not given)	86.9 µM (inactive)	> 100	> 100 µM (inactive)	67.5 µM (inactive)	57.5 µM (inactive)	57.5 µM (inactive)	> 100 µM (inactive)	> 100 µM (inactive)	37.5 µM (inactive)	> 100 µM (inactive)	63.5 µM (inactive)	> 100 µM (inactive)	26.8 µM (inactive)	> 100 µM (inactive)	37.7 µM (inactive)	26.5 µM (inactive)	> 100 µM (inactive)	> 100 µM (inactive)	> 100 µM (inactive)	64.9 µM (inactive)
CCOc1cc(NC(C)=O)ccc1C(=O)NN1C(=O)C(Cl)C1c1ccc(O)c(OC)c1 (stereo not given)	11.7 µM (inactive)	14.2	10.2 µM (inactive)	8 µM (inactive)	2.43 µM (inactive)	20.4 µM (inactive)	24.4 µM (inactive)	14.6 µM (inactive)	20.2 µM (inactive)	2.17 µM (inactive)	12.8 µM (inactive)	16.1 µM (inactive)	6.35 µM (inactive)	16.1 µM (inactive)	16.7 µM (inactive)	17.2 µM (inactive)	11.4 µM (inactive)	4.67 µM (inactive)	17.3 µM (inactive)	17.6 µM (inactive)

From ChEMBL document CHEMBL1201862, “PubChem BioAssay data set” (2004)
